In ChEMBL document CHEMBL1136684, “Novel and potent human and rat beta3-adrenergic receptor agonists containing substituted 3-indolylalkylamines” (Bioorg Med Chem Lett, 2003):

Experiments:
[1] = target: T1, Beta-3 adrenergic receptor (Homo sapiens, UniProt P13945); assay: Agonistic activity to recombinant human beta-3 adrenergic receptor expressed in CHO cells by measuring cAMP accumulation; type: functional, cell-based
Target sequence in this assay (P13945 whole entry, looked up): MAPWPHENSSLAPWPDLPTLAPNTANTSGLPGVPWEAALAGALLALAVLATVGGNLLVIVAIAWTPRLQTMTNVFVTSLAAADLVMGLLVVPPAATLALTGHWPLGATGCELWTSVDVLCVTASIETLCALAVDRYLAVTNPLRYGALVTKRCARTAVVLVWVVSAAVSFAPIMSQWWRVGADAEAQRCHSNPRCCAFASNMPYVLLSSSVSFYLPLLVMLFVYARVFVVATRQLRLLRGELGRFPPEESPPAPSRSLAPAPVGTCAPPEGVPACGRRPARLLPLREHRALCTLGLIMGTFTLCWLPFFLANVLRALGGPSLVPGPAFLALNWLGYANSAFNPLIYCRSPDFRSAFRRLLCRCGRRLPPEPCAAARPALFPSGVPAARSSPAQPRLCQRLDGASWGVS

[2] = target: Beta-3 adrenergic receptor (Rattus norvegicus) (UniProt P26255); assay: Agonistic activity against rat Beta-3 adrenergic receptor as cAMP accumulation in CHO cells expressing beta3-AR
[3] = target: T1, Beta-3 adrenergic receptor; assay: Agonism of recombinant human beta-3 adrenergic receptor assayed by measuring cAMP accumulation in CHO cells expressing beta3-AR; type: functional, cell-based
Target sequence in this assay (P13945 whole entry): as the sequence (P13945 whole entry, looked up) above

[4] = target: T2, Beta-2 adrenergic receptor (Homo sapiens, UniProt P07550); assay: (§1) Agonistic activity against human Beta-2 adrenergic receptor by measuring cAMP accumulation in CHO cells expressing beta3-AR; type: functional, cell-based
Target sequence in this assay (P07550 whole entry): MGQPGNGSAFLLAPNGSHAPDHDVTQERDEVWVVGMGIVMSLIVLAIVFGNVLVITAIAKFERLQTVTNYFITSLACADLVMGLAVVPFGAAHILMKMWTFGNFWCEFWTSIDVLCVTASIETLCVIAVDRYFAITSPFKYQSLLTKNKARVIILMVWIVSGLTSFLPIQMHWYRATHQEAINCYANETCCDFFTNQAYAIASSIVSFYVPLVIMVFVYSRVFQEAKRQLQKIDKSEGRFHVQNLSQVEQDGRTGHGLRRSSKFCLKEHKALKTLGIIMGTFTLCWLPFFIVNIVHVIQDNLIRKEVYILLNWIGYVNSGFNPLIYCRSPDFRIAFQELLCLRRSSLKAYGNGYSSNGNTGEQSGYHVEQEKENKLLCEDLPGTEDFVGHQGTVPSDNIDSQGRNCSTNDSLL

[5] = target: Beta-3 adrenergic receptor (Rattus norvegicus) (UniProt P26255); assay: Agonistic activity against rat Beta-3 adrenergic receptor as cAMP accumulation in CHO cells expressing beta3-AR; remark: listed apart in the source
[6] = target: Beta-1 adrenergic receptor (Homo sapiens, UniProt P08588); assay: Agonistic activity against human Beta-1 adrenergic receptor by measuring cAMP accumulation in CHO cells expressing beta3-AR; type: functional, cell-based
Chain of Beta-1 adrenergic receptor (P08588 whole entry): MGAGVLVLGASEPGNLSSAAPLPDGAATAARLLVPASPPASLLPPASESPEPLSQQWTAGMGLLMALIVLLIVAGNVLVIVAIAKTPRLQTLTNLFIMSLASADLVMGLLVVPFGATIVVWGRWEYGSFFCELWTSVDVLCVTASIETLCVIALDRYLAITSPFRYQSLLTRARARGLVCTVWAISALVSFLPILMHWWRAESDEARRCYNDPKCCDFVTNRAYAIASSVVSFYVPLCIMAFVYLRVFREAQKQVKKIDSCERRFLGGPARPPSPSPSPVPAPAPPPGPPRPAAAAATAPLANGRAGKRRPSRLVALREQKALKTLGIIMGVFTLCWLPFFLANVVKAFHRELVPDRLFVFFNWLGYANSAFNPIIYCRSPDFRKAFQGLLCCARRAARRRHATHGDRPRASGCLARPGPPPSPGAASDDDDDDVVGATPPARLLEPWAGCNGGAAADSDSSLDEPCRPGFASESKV

[7] = target: T2, Beta-2 adrenergic receptor; assay: as §1; type: functional, cell-based; remark: listed apart in the source
Target sequence in this assay (P07550 whole entry, looked up): as the sequence (P07550 whole entry) above

[8] = target: T1, Beta-3 adrenergic receptor; assay: (§2) Agonistic activity against human Beta-3 adrenergic receptor by measuring cAMP accumulation in CHO cells expressing Beta-3 adrenergic receptor; type: functional, cell-based
Target sequence in this assay (P13945 whole entry, looked up): as the sequence (P13945 whole entry, looked up) above

[9] = target: T1, Beta-3 adrenergic receptor; assay: Agonistic activity against human Beta-3 adrenergic receptor by measuring cAMP accumulation in CHO cells expressing beta3-AR with respect to isoproterenol at a concentration of 10e-7 M; type: functional, cell-based
Target sequence in this assay (P13945 whole entry, looked up): as above

[10] = target: T1, Beta-3 adrenergic receptor; assay: Agonistic activity against human Beta-3 adrenergic receptor by measuring cAMP accumulation in CHO cells; type: functional, cell-based
Target sequence in this assay (P13945 whole entry, looked up): as above

[11] = target: T1, Beta-3 adrenergic receptor; assay: as §2; type: functional, cell-based; remark: listed apart in the source
Target sequence in this assay (P13945 whole entry): as the sequence (P13945 whole entry, looked up) above

[12] = target: T1, Beta-3 adrenergic receptor; assay: Agonistic activity against human beta-3-adrenergic receptor by measuring cAMP accumulation in CHO cells expressing Beta-3 adrenergic receptor; type: functional, cell-based
Target sequence in this assay (P13945 whole entry, looked up): as above

[13] = target: T1, Beta-3 adrenergic receptor; assay: Agonistic activity against human Beta-3 adrenergic receptor by measuring cAMP accumulation in CHO cells expressing Beta-3 adrenergic receptor with respect to isoproterenol at a concentration of 10e-7 M; type: functional, cell-based
Target sequence in this assay (P13945 whole entry, looked up): as above

C[C@H](Cc1c[nH]c2c(OCC(=O)O)cccc12)NC[C@H](O)c1cccc(Cl)c1 [RAFABEGRON]
Intrinsic activity [1]: 116%
Intrinsic activity [2]: 110%
EC50 [3]: 0.062 nM
EC50 [4]: 13 nM
EC50 [5]: 0.016 nM
EC50 [6]: 6.4 nM
Intrinsic activity [7]: 26%

CC(Cc1c[nH]c2c(OC(C)C)cccc12)NC[C@H](O)c1cccc(Cl)c1 (some centres undefined)
Intrinsic activity [1]: 87%
EC50 [3]: 2.8 nM

C[C@@H](Cc1c[nH]c2ccccc12)NC[C@@H](O)c1cccc(Cl)c1
Intrinsic activity [1]: 62%
Intrinsic activity [2]: 108%
EC50 [3]: 3300 nM
EC50 [5]: 33 nM
EC50 [6]: 140 nM

CC(Cc1c[nH]c2ccccc12)NCC(O)c1cccc(Cl)c1 (centres undefined) [listing 1 of 2 here]
Intrinsic activity [8]: 114%

OC(CNC1CCc2[nH]c3ccccc3c2C1)c1cccc(Cl)c1 (centres undefined)
cAMP accumulation [9]: 0%

C[C@H](Cc1c[nH]c2ccccc12)NC[C@H](O)c1cccc(Cl)c1
Intrinsic activity [1]: 110%
Intrinsic activity [2]: 98%
EC50 [3]: 5.4 nM
EC50 [4]: 25 nM
EC50 [5]: 0.36 nM
EC50 [6]: 1.9 nM
Intrinsic activity [7]: 50%

C[C@H](Cc1c[nH]c2ccccc12)NC[C@@H](O)c1cccc(Cl)c1
Intrinsic activity [1]: 119%
Intrinsic activity [2]: 108%
EC50 [3]: 220 nM
EC50 [4]: 330 nM
EC50 [5]: 11 nM
EC50 [6]: 47 nM
Intrinsic activity [7]: 23%

OC(CNCCc1c[nH]c2ccccc12)c1cccc(Cl)c1 (centres undefined)
Intrinsic activity [10]: 99%
EC50 [11]: 69 nM

Cc1cccc2[nH]cc(CCNCC(O)c3cccc(Cl)c3)c12 (centres undefined)
cAMP accumulation [9]: 20%

Cc1ccc2c(CC(C)NCC(O)c3cccc(Cl)c3)c[nH]c2c1 (centres undefined)
Intrinsic activity [1]: 95%

COc1ccc2c(CC(C)NCC(O)c3cccc(Cl)c3)c[nH]c2c1 (centres undefined)
Intrinsic activity [1]: 102%

Cc1[nH]c2ccccc2c1CCNCC(O)c1cccc(Cl)c1 (centres undefined)
cAMP accumulation [9]: 5%

COc1cccc2c(CC(C)NCC(O)c3cccc(Cl)c3)c[nH]c12 (centres undefined)
Intrinsic activity [1]: 113%

Cc1cccc2[nH]cc(CC(C)NCC(O)c3cccc(Cl)c3)c12 (centres undefined)
Intrinsic activity [1]: 165%
EC50 [3]: 96 nM

COc1cccc2c(C[C@H](C)NC[C@H](O)c3cccc(Cl)c3)c[nH]c12
Intrinsic activity [1]: 51%
Intrinsic activity [2]: 121%
EC50 [3]: 120 nM
EC50 [5]: 6.5 nM

CC(Cc1c[nH]c2c(O)cccc12)NC[C@H](O)c1cccc(Cl)c1 (some centres undefined)
Intrinsic activity [1]: 128%
EC50 [3]: 1.7 nM

Cc1cccc2c(CCNCC(O)c3cccc(Cl)c3)c[nH]c12 (centres undefined)
cAMP accumulation [9]: 0%

CC(Cc1c[nH]c2c(OCC(=O)O)cccc12)NC[C@H](O)c1cccc(Cl)c1 (some centres undefined)
Intrinsic activity [1]: 124%
EC50 [3]: 0.11 nM

CC(Cc1c[nH]c2ccccc12)NCC(O)c1cccc(Cl)c1 (mixture of isomers) [listing 1 of 2 here]
EC50 [3]: 12 nM
EC50 [4]: 23 nM
EC50 [5]: 0.97 nM

CC(Cc1c[nH]c2ccccc12)NCC(O)c1cccc(Cl)c1 (mixture of isomers) [listing 2 of 2 here]
Intrinsic activity [1]: 114%
Intrinsic activity [2]: 107%
Intrinsic activity [7]: 46%

CC(C)(Cc1c[nH]c2ccccc12)NCC(O)c1cccc(Cl)c1 (centres undefined)
EC50 [11]: 70 nM
Intrinsic activity [12]: 118%

COC(=O)COc1cccc2c(CC(C)NC[C@H](O)c3cccc(Cl)c3)c[nH]c12 (some centres undefined)
Intrinsic activity [1]: 102%
EC50 [3]: 0.92 nM

CCC(Cc1c[nH]c2ccccc12)NCC(O)c1cccc(Cl)c1 (centres undefined)
cAMP accumulation [13]: 20%

C[C@@H](Cc1c[nH]c2c(OCC(=O)O)cccc12)NC[C@H](O)c1cccc(Cl)c1
Intrinsic activity [1]: 84%
Intrinsic activity [2]: 106%
EC50 [3]: 10 nM
EC50 [5]: 1.2 nM
EC50 [6]: 14 nM

Cn1cc(CCNCC(O)c2cccc(Cl)c2)c2ccccc21 (centres undefined)
cAMP accumulation [9]: 6%

CC(Cc1c[nH]c2c(OCc3ccccc3)cccc12)NC[C@H](O)c1cccc(Cl)c1 (some centres undefined)
Intrinsic activity [1]: 114%
EC50 [3]: 11 nM

CCCOc1cccc2c(CC(C)NC[C@H](O)c3cccc(Cl)c3)c[nH]c12 (some centres undefined)
Intrinsic activity [1]: 103%
EC50 [3]: 14 nM

CC(Cc1c[nH]c2cc(Cl)ccc12)NCC(O)c1cccc(Cl)c1 (centres undefined)
Intrinsic activity [1]: 131%
EC50 [3]: 28 nM

C[C@H](Cc1ccc(OCC(=O)O)cc1)NC[C@H](O)c1cccc(Cl)c1
Intrinsic activity [7]: 31%

C[C@@H](Cc1c[nH]c2ccccc12)NC[C@H](O)c1cccc(Cl)c1
Intrinsic activity [1]: 97%
Intrinsic activity [2]: 96%
EC50 [3]: 240 nM
EC50 [5]: 13 nM
EC50 [6]: 9.4 nM

CC(Cc1c[nH]c2cc(Br)ccc12)NCC(O)c1cccc(Cl)c1 (centres undefined)
Intrinsic activity [1]: 98%
EC50 [3]: 38 nM

CCOc1cccc2c(CC(C)NC[C@H](O)c3cccc(Cl)c3)c[nH]c12 (some centres undefined)
Intrinsic activity [1]: 96%

COc1cccc2c(CC(C)NC[C@H](O)c3cccc(Cl)c3)c[nH]c12 (some centres undefined)
Intrinsic activity [1]: 114%

COc1cccc2c(C[C@@H](C)NC[C@H](O)c3cccc(Cl)c3)c[nH]c12
Intrinsic activity [1]: 89%
Intrinsic activity [2]: 147%
EC50 [3]: 0.36 nM
EC50 [4]: 5.2 nM
EC50 [5]: 0.15 nM
Intrinsic activity [7]: 46%

Cc1ccc2[nH]cc(CCNCC(O)c3cccc(Cl)c3)c2c1 (centres undefined)
cAMP accumulation [9]: 7%

CC(Cc1c[nH]c2ccccc12)NCC(O)c1cccc(Cl)c1 (centres undefined) [listing 2 of 2 here]
EC50 [11]: 12 nM
